Experimental data from patent publication US10517889B2, “Modulators of SMAD7 expression” (Ionis Pharmaceuticals, Inc., priority 2017, dated 2019).
pIC50: −log10 of the molar value. Strand notation (5' to 3'): a small letter for the sugar, then the base; units joined by * are phosphorothioate-linked, units joined directly phosphodiester-linked; [ ] holds rarer units or linkages, { } end groups; capitals alone tell only the bases. k = constrained ethyl (cEt); [5mC] = 5-methylcytosine; d = 2'-deoxy (DNA)

Columns and labels:
human SMAD7 mRNA [1] = assay: Dose-dependent inhibition of human SMAD7 mRNA expression in Hep3B cells (Example 3, Study 1 and 2); assay type: cell-based; conditions: electroporation; for % inhibition of SMAD7 mRNA expression: approximately 16 hours; for pIC50: Study 2 (740-20000 nM)
Method: The antisense oligonucleotides were tested in a series of experiments that had similar culture conditions as described below.
(§1) Cells were plated at a density of 20,000 cells per well and transfected using electroporation with 0.31 μM, 1.25 μM, 5.00 μM, or 20.00 μM concentrations of antisense oligonucleotide, as specified in the Tables below. ION 483663 was included in the assays for comparison. After a treatment period of approximately 16 hours, RNA was isolated from the cells and SMAD7 mRNA levels were measured by quantitative real-time PCR. Primer probe set RTS5062 was used to measure human SMAD7 mRNA levels. SMAD7 mRNA levels were adjusted according to total RNA content, as measured by RIBOGREEN®. Results are presented as percent inhibition of SMAD7 mRNA expression, relative to untreated control cells.
The half maximal inhibitory concentration (IC50) of each oligonucleotide is also presented.
as §1, with “0.74” for “0.31”, “2.22” for “1.25”, “6.67” for “5.00”, “below.” for “below. ION 483663 was included in the assays for comparison.”

human SMAD7 mRNA [2] = assay: Antisense inhibition of human SMAD7 mRNA expression in Hep3B cells by 3-10-3 cEt gapmers, 10,000 nM, electroporation (Example 2); assay type: cell-based; conditions: approximately 24 hours
How it was run: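 qRT-PCR (RTS5062) of SMAD7 mRNA, normalised to RIBOGREEN total RNA, gave percent inhibition relative to untreated controls. Hep3B cells at 20,000 per well received 10,000 nM oligonucleotide by electroporation, with ~24 h treatment.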

[3] = 740 nM, Study 2, relative to untreated control cells
[4] = Hep3B cells, 10,000 nM antisense oligonucleotide, electroporation, RT-PCR primer probe set RTS5062, relative to untreated control cells
[5] = Hep3B cells, electroporation with 10,000 nM antisense oligonucleotide, primer probe set RTS5062, relative to untreated control cells
[6] = Hep3B cells, electroporation with 10,000 nM antisense oligonucleotide, RTS5062, percent inhibition of SMAD7 mRNA relative to untreated control cells

| Substance | % inhibition of SMAD7 mRNA expression (human SMAD7 mRNA [1]; [3]) [%] | % inhibition of SMAD7 mRNA expression (human SMAD7 mRNA [1]; 2220 nM, Study 2) [%] | % inhibition of SMAD7 mRNA expression (human SMAD7 mRNA [1]; 6670.0 nM, Study 2) [%] | % inhibition of SMAD7 mRNA expression (human SMAD7 mRNA [1]; 20000.0 nM, Study 2) [%] | pIC50 (human SMAD7 mRNA [1]) | % Inhibition (human SMAD7 mRNA [2]; [4]) [%] | % Inhibition (human SMAD7 mRNA [2]; [5]) [%] | % inhibition of SMAD7 mRNA expression (human SMAD7 mRNA [2]; [5]) [%] | % Inhibition (human SMAD7 mRNA [2]; SMAD7 mRNA, Hep3B cells, 10,000 nM antisense oligonucleotide, electroporation, primer probe set RTS5062, relative to untreated control cells) [%] | % Inhibition (human SMAD7 mRNA [2]; [6]) [%] | % inhibition of SMAD7 mRNA expression (human SMAD7 mRNA [2]; Hep3B cells, electroporation, 10,000 nM antisense oligonucleotide, RTS5062, relative to untreated control cells) [%] | % Inhibition (human SMAD7 mRNA [2]; Hep3B cells, electroporation with 10,000 nM antisense oligonucleotide, SMAD7 mRNA by RT-PCR (RTS5062), relative to untreated control cells) [%] |
| --- | --- | --- | --- | --- | --- | --- | --- | --- | --- | --- | --- | --- |
| 798824 (kG*kA*k[5mC]*dA*d[5mC]*dA*dG*dT*dA*dG*dA*dG*d[5mC]*k[5mC]*kT*k[5mC]; antisense) [compound 798824] | 0 | 0 | 7 | 42 | 5.40 | 74 |  |  |  |  |  |  |
| 798931 (antisense kG*kA*kG*dG*dA*dA*dA*dA*dT*dA*dT*dT*dA*kG*k[5mC]*kA) [compound 798931] | 0 | 43 | 72 | 83 | 5.15 | 69 |  |  |  |  |  |  |
| 798954 (antisense kA*kT*kA*dA*dG*d[5mC]*dT*dA*dT*dT*dT*d[5mC]*dT*k[5mC]*kA*kA) [compound 798954] | 4 | 27 | 49 | 70 | < 4.70 |  | 54 |  |  |  |  |  |
| 798987 (antisense kA*kA*kT*dG*dA*dT*dG*dA*d[5mC]*d[5mC]*dG*d[5mC]*d[5mC]*k[5mC]*k[5mC]*k[5mC]) [compound 798987] | 0 | 0 | 8 | 47 | 5.40 |  |  | 84 |  |  |  |  |
| 799067 (antisense kG*kG*kA*dT*dG*dA*dA*dA*dA*dT*dA*dA*dT*kT*kG*kG) [compound 799067] | 5 | 55 | 63 | 78 | 5.05 |  |  | 74 |  |  |  |  |
| 799070 (antisense kA*kG*kG*dG*dA*dA*dT*dA*dA*dG*dA*d[5mC]*dA*kA*kG*kG) [compound 799070] | 0 | 44 | 42 | 60 | 5.40 |  |  | 67 |  |  |  |  |
| 799089 (antisense kA*kG*k[5mC]*dA*dA*dT*dA*d[5mC]*dT*dG*dT*dG*dA*kG*kG*kG) [compound 799089] | 12 | 40 | 61 | 76 | 5.15 |  |  | 60 |  |  |  |  |
| 799118 (antisense kA*kG*kA*dG*d[5mC]*dT*dT*dA*dA*d[5mC]*dA*d[5mC]*dA*k[5mC]*kA*kG) [compound 799118] | 0 | 16 | 50 | 75 | > 6.15 |  | 71 |  |  |  |  |  |
| 799143 (antisense kT*kG*kG*dG*dT*dT*dA*dT*dG*dA*d[5mC]*dG*dG*kA*k[5mC]*k[5mC]) [compound 799143] | 87 | 93 | 95 | 96 | 5.70 |  |  | 66 | 61 |  |  |  |
| 799159 (antisense kG*kT*kG*dT*dA*dT*dG*dA*dG*dT*dT*dG*dT*kA*kG*kA) [compound 799159] | 43 | 55 | 78 | 90 | 4.72 |  | 56 |  |  |  |  |  |
| 799168 (antisense kG*k[5mC]*kT*dA*dA*dG*dA*dA*d[5mC]*dA*dG*dT*dG*kT*k[5mC]*kG) [compound 799168] | 15 | 13 | 36 | 54 | 5.30 |  |  | 75 |  |  |  |  |
| 799312 (antisense k[5mC]*kA*kT*d[5mC]*dT*dT*dT*dA*dA*dG*d[5mC]*dA*d[5mC]*kG*k[5mC]*kT) [compound 799312] | 23 | 46 | 49 | 69 | 5.40 |  |  |  |  | 66 |  |  |
| 799318 (antisense kG*kT*kG*dG*dA*dT*dT*dT*dG*dA*dA*dA*dA*kG*kG*kG) [compound 799318] | 12 | 40 | 70 | 75 | 4.96 |  |  |  |  | 58 |  |  |
| 799321 (antisense kA*kT*k[5mC]*dT*dG*dG*dA*d[5mC]*dA*dG*dT*d[5mC]*dT*kG*k[5mC]*kT) [compound 799321] | 0 | 5 | 36 | 67 | > 6.15 |  |  |  |  |  | 93 |  |
| 799322 (antisense kG*kG*kA*dG*dG*dG*dT*dA*dT*dG*d[5mC]*dA*d[5mC]*kA*k[5mC]*kT) [compound 799322] | 89 | 90 | 96 | 96 | 5.70 |  |  | 83 |  |  |  |  |
| 799364 (kT*k[5mC]*k[5mC]*dG*dA*dG*dT*dT*dA*dT*d[5mC]*d[5mC]*d[5mC]*k[5mC]*kA*kT; antisense) [compound 799364] | 39 | 54 | 67 | 88 | 5.52 |  |  | 73 |  |  |  |  |
| 799365 (k[5mC]*kT*k[5mC]*d[5mC]*dG*dA*dG*dT*dT*dA*dT*d[5mC]*d[5mC]*k[5mC]*k[5mC]*kA; antisense) [compound 799365] | 11 | 39 | 73 | 94 | 5.40 |  |  | 61 |  |  |  |  |
| 799366 (antisense kT*k[5mC]*kT*d[5mC]*d[5mC]*dG*dA*dG*dT*dT*dA*dT*d[5mC]*k[5mC]*k[5mC]*k[5mC]) [compound 799366] | 18 | 39 | 64 | 76 | 5.10 |  |  | 70 |  |  |  |  |
| 799369 (antisense kA*k[5mC]*kT*d[5mC]*dA*d[5mC]*dT*dA*dA*dG*dT*d[5mC]*dT*k[5mC]*k[5mC]*kG) [compound 799369] | 1 | 10 | 46 | 74 | 5.22 |  |  |  |  |  |  | 50 |
